Key:
hLPAR1 = biological target: T1, hLPAR1 (Homo sapiens, UniProt Q92633); test: Ca2+ Flux Assay (B103 cells stably expressing hLPAR1); type: cell-based; settings: LPA-induced calcium release, Fura-2 AM, compound 20 min at RT
T1 construct: expressed in transfected cells
Method: B103 cells stably expressing hLPAR1 were seeded at a density of 1.0×10^5 cells per well in clear flat-bottom black 96-well plates and incubated overnight in complete media. The following day, the cells were pre-incubated in serum-free media for 2 hours prior to ensure cellular equilibration. For the loading a calcium-sensitive fluorescent dye, the cells were treated with a concentration of 5 μM Fura-2 AM dye (Sigma, F1225) in Hank's buffered salt solution (HBSS) supplemented with 20 mM HEPES, […], and 0.3% fatty-acid-free bovine serum albumin for 40 minutes at room temperature (RT). Test compounds, prepared in DMSO, were then added to each well and incubated for 20 minutes at RT. To induce calcium release, a concentration of […] in HBSS supplemented with 20 mM HEPES, and 0.3% fatty-acid-free bovine serum albumin was introduced. Intracellular calcium mobilization was subsequently quantified by monitoring the fluorescence intensity using the Spark® multimode microplate reader (TECAN).

A2058 cells = test: Chemotaxis Assay (LPA-induced migration of A2058 cells); type: cell-based; settings: Homo sapiens, 4 to 8 hours, crystal violet 590 nm
Method: For monitoring the migration of cells, Neuroprobe ChemoTx® System plates ([…], 5.7 mm diameter sites; Gaithersburg, MD, USA) were utilized. To induce cell migrations, a concentration of […] or vehicle in DMEM were loaded to the bottom chamber. A total of 15,000 A2058 cells, which were starved for 24 hr following treated with test compounds or vehicle, were then applied to the upper membrane coated with 0.001% fibronectin. The plate was incubated for 4 to 8 hours to allow cell migration. Following incubation, the plate was dissembled, and the migrated cells were visualized by crystal violet staining. The stained area with crystal violet was quantified by measuring the absorbance at 590 nm and the relative percentage of the control was calculated.

T1 sequence (Q92633 whole entry): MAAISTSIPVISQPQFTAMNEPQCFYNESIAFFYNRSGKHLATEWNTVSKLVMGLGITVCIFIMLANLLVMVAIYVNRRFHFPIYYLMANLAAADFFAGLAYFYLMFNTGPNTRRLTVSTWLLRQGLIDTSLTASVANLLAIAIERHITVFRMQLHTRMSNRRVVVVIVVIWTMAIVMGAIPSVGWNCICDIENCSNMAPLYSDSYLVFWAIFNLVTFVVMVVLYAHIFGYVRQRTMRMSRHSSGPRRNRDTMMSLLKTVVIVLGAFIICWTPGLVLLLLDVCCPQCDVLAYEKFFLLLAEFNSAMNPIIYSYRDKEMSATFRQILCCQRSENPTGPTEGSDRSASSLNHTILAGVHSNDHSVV

IC50 (hLPAR1) [nM] | IC50 (A2058 cells) [nM] | SMILES
< 10 | 100 to 500 | COCc1ccccc1[C@H](C)OC(=O)Nc1c(C2CCN(c3ccc(C4(C(=O)O)CC4)cc3)CC2)nnn1C [Compound 24, (S)-1-(4-(4-(5-(((1-(2-(methoxymethyl)phenyl)ethoxy)carbonyl)amino)-1-methyl-1H-1,2,3-triazol-4-yl)piperidin-1-yl)phenyl)cyclopropane-1-carboxylic acid]
< 10 | < 100 | Cc1ccccc1[C@@H](C)OC(=O)Nc1c(C)nsc1C1CCN(c2ccc(C3(C(=O)O)CC3)cc2)CC1 [Compound 36]
200 to 3000 | 500 to 5000 | CO[C@@H](C(=O)Nc1c(C)noc1C1CCN(c2ccc(C3(C(=O)O)CC3)cc2)CC1)c1ccccc1 [Compound 47]
< 10 | < 100 | C[C@@H](OC(=O)Nc1c(C2CCN(c3ccc(C4(C(=O)NS(=O)(=O)C5(C(=O)O)CC5)CC4)cc3)CC2)nnn1C)c1ccccc1Cl [Compound 39, 1-[[1-[4-[4-[5-[[(1R)-1-(2-chlorophenyl)ethoxy]carbonylamino]-1-methyl-triazol-4-yl]-1-piperidyl]phenyl]cyclopropanecarbonyl]sulfamoyl]cyclopropanecarboxylic acid]
< 10 | < 100 | C[C@@H](OC(=O)Nc1c(C2CCN(c3ccc(C4(C(=O)NS(=O)(=O)C5(C(=O)O)CC5)CC4)cc3)CC2)nnn1C)c1ccccc1 [Compound 57, 1-[[1-[4-[4-[1-methyl-5-[[(1R)-1-phenylethoxy]carbonylamino]triazol-4-yl]-1-piperidyl]phenyl]cyclopropanecarbonyl]sulfamoyl]cyclopropanecarboxylic acid]
< 10 | 500 to 5000 | C[C@@H](OC(=O)Nc1c(C2CCN(c3ccc(C4(C(=O)O)CC4)cc3)CC2)nnn1C)C1CCCCC1 [Compound 26, (R)-1-(4-(4-(5-(((1-cyclohexylethoxy)carbonyl)amino)-1-methyl-1H-1,2,3-triazol-4-yl)piperidin-1-yl)phenyl)cyclopropane-1-carboxylic acid]
10 to 200 | 100 to 500 | Cc1nsc(C2CCN(c3ccc(C4(C(=O)O)CC4)cc3)CC2)c1NC(=O)O[C@H](C)c1ccccc1F [Compound 43]
< 10 | < 100 | Cc1noc(C2CC3(C2)CN(c2ccc(C4(C(=O)NS(=O)(=O)CCCO)CC4)cc2)C3)c1NC(=O)O[C@H](C)c1ccccc1 [Compound 52]
200 to 3000 | 500 to 5000 | Cc1ncnc(C2CCN(c3ccc(C4(C(=O)O)CC4)cc3)CC2)c1NC(=O)O[C@H](C)c1ccccc1 [Compound 29]
200 to 3000 | 500 to 5000 | Cc1nnn(C2CCN(c3ccc(C4(C(=O)NS(=O)(=O)C(F)(F)F)CC4)cc3)CC2)c1NC(=O)O[C@H](C)c1ccccc1 [Compound 15]
200 to 3000 | 500 to 5000 | COc1c(C)cc(NC(=O)O[C@H](C)c2ccccc2)c(C2CCN(c3ccc(C4(C(=O)O)CC4)cc3)CC2)c1C [Compound 18]
10 to 200 | 500 to 5000 | C[C@@H](OC(=O)Nc1cccnc1C1CCN(c2ccc(C3(C(=O)O)CC3)cc2)CC1)c1ccccc1 [Compound 28]
10 to 200 | < 100 | Cc1noc(C2CC3(C2)CN(c2ccc(C4(C(=O)NS(=O)(=O)CC(=O)O)CC4)cc2)C3)c1NC(=O)O[C@H](C)c1ccccc1 [Compound 48]
< 10 | < 100 | C=CCS(=O)(=O)NC(=O)C1(c2ccc(N3CCC(c4onc(C)c4NC(=O)O[C@H](C)c4ccccc4)CC3)cc2)CC1 [Compound 2, (1R)-1-phenylethyl N-{3-methyl-5-[1-(4-{1-[(prop-2-ene-1-sulfonyl)carbamoyl]cyclopropyl}phenyl)piperidin-4-yl]-1,2-oxazol-4-yl}carbamate]
< 10 | < 100 | COC(=O)C(C)(C)S(=O)(=O)NC(=O)C1(c2ccc(N3CCC(c4onc(C)c4NC(=O)O[C@H](C)c4ccccc4)CC3)cc2)CC1 [Compound 69, methyl 2-methyl-2-[[1-[4-[4-[3-methyl-4-[[(1R)-1-phenylethoxy]carbonylamino]isoxazol-5-yl]-1-piperidyl]phenyl]cyclopropanecarbonyl]sulfamoyl]propanoate]
< 10 | < 100 | C[C@@H](OC(=O)Nc1c(C2CCN(c3ccc(C4(C(=O)O)CC4)cc3)CC2)nnn1C)c1ccccc1Cl [Compound 27, 1-(4-{4-[5-({[(1R)-1-(2-chlorophenyl)ethoxy]carbonyl}amino)-1-methyl-1H-1,2,3-triazol-4-yl]piperidin-1-yl}phenyl)cyclopropane-1-carboxylic acid]

IC50 (hLPAR1) [nM] | IC50 (A2058 cells) [nM] | SMILES
< 10 | 500 to 5000 | COc1cc(C2(C(=O)O)CC2)ccc1N1CCC(c2nnn(C)c2NC(=O)O[C@H](C)c2ccccc2)CC1 [Compound 4]
< 10 | < 100 | Cc1noc(C2CCN(c3ccc(C4(C(=O)NS(=O)(=O)C5(C(N)=O)CC5)CC4)cc3)CC2)c1NC(=O)O[C@H](C)c1ccccc1 [Compound 73, (1R)-1-phenylethyl N-(5-{1-[4-(1-{[(1-carbamoylcyclopropyl)sulfonyl]carbamoyl}cyclopropyl)phenyl]piperidin-4-yl}-3-methyl-1,2-oxazol-4-yl)carbamate]
< 10 | 500 to 5000 | COc1cc(C2(C(=O)O)CC2)ccc1N1CC2(CC(c3onc(C)c3NC(=O)O[C@H](C)c3ccccc3)C2)C1 [Compound 46, 1-(3-methoxy-4-{6-[3-methyl-4-({[(1R)-1-phenylethoxy]carbonyl}amino)-1,2-oxazol-5-yl]-2-azaspiro[3.3]heptan-2-yl}phenyl)cyclopropane-1-carboxylic acid]
< 10 | < 100 | COc1cc(C2(C(=O)NS(=O)(=O)CCC(=O)O)CC2)ccc1N1CCC(c2onc(C)c2NC(=O)O[C@H](C)c2ccccc2)CC1 [Compound 1, 3-[[1-[3-methoxy-4-[4-[3-methyl-4-[[(1R)-1-phenylethoxy]carbonylamino]isoxazol-5-yl]-1-piperidyl]phenyl]cyclopropanecarbonyl]sulfamoyl]propanoic acid]
< 10 | < 100 | Cc1noc(C2CCN(c3ccc(C4(c5nnn[nH]5)CC4)cc3)CC2)c1NC(=O)O[C@H](C)c1ccccc1 [Compound 88, [(1R)-1-phenylethyl]N-[3-methyl-5-[1-[4-[1-(1H-tetrazol-5-yl)cyclopropyl]phenyl]-4-piperidyl]isoxazol-4-yl]carbamate]
< 10 | < 100 | Cc1noc(C2CC3(C2)CN(c2ccc(C4(C(=O)NS(=O)(=O)CCC(=O)O)CC4)cc2)C3)c1NC(=O)O[C@H](C)c1ccccc1 [Compound 50]
< 10 | ≥ 5000 | COc1cc(C2(CNS(=O)(=O)CCC(=O)O)CC2)ccc1N1CCC(c2nnn(C)c2NC(=O)O[C@H](C)c2ccccc2)CC1 [Compound 3]
10 to 200 | < 100 | Cc1ccccc1[C@@H](C)OC(=O)Nc1c(C)noc1C1CC2(C1)CN(c1ccc(C3(C(=O)NS(=O)(=O)CCC(=O)O)CC3)cc1)C2 [Compound 31, 3-({[1-(4-{6-[3-methyl-4-({[(1R)-1-(2-methylphenyl)ethoxy]carbonyl}amino)-1,2-oxazol-5-yl]-2-azaspiro[3.3]heptan-2-yl}phenyl)cyclopropyl]formamido}sulfonyl)propanoic acid]
10 to 200 | 100 to 500 | Cc1noc(C2CCN(c3ccc(C4(C(=O)O)CC4)cc3)CC2)c1N(C)C(=O)O[C@H](C)c1ccccc1 [Compound 45]
10 to 200 | 500 to 5000 | Cc1noc(C2CCN(c3ccc(C4(C(=O)O)CC4)cc3)CC2)c1NC(=O)N[C@H](C)c1ccccc1 [Compound 16]
10 to 200 | 100 to 500 | C[C@@H](OC(=O)Nc1c(C2CCN(c3ccc(C4(C(=O)NS(=O)(=O)CC(C)(C)C(=O)O)CC4)cc3)CC2)nnn1C)c1ccccc1Cl [Compound 40]
< 10 | < 100 | Cc1noc(C2CCN(c3ccc(C4(C(=O)NS(=O)(=O)C5(C(=O)O)CC5)CC4)cc3)CC2)c1NC(=O)O[C@H](C)c1ccccc1 [Compound 75]
10 to 200 | 100 to 500 | COc1ccccc1[C@@H](C)OC(=O)N(C)c1c(C)nsc1C1CCN(c2ccc(C3(C(=O)O)CC3)cc2)CC1 [Compound 44]
< 10 | 500 to 5000 | Cc1nnn(C2CCN(c3ccc(C4(C(=O)O)CC4)cc3)CC2)c1NC(=O)O[C@H](C)c1ccccc1 [Compound 53]
< 10 | 100 to 500 | Cc1noc(C2CCN(c3ccc(C4(S(=O)(=O)O)CC4)cc3)CC2)c1NC(=O)O[C@H](C)c1ccccc1 [Compound 89, 1-[4-[4-[3-methyl-4-[[(1R)-1-phenylethoxy]carbonylamino]isoxazol-5-yl]-1-piperidyl]phenyl]cyclopropanesulfonic acid]

From US20260356824A1, “COMPOUNDS FOR TREATING FIBROTIC DISEASES” (Meta-Immue Inc., priority 2023, published 2026)
